What was measured:
Experiment in all cases: relative viability (nuclei count vs DMSO), 5 days (fraction); higher = more cells survive
[1] = compound: C1=CC2=C(C=C(C(=C2N=C1)O)N=NC3=CC4=C(C=C3)C=C(C=C4)S(=O)(=O)O)S(=O)(=O)O + CC(=O)Nc1cccc(-n2c(=O)n(C3CC3)c(=O)c3c(Nc4ccc(I)cc4F)n(C)c(=O)c(C)c32)c1 [Trametinib] (partner 0.02 µM)
Method in brief: (§1)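 Cells from lung cancer lines were seeded into 1536-well plates and, one day later, dosed by pin tool. Treatments were either a single drug or a fixed dose of an anchor drug with five library-drug doses (not always all listed) in √10 steps. After 5 days, nuclei were stained in a one-step fixation (final 0.05% Triton X-100, 1% formaldehyde, 1 ug/ml Hoechst) and counted on 4× images, and relative viability is the treated-to-vehicle nuclei ratio, as the median of duplicate plates.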

[2] = compound: C1=CC2=C(C=C(C(=C2N=C1)O)N=NC3=CC4=C(C=C3)C=C(C=C4)S(=O)(=O)O)S(=O)(=O)O + CC(=O)c1c(C)c2cnc(Nc3ccc(N4CCNCC4)cn3)nc2n(C2CCCC2)c1=O [Palbociclib] (partner 0.5 µM)
Method in brief: as §1

[3] = compound: C1=CC2=C(C=C(C(=C2N=C1)O)N=NC3=CC4=C(C=C3)C=C(C=C4)S(=O)(=O)O)S(=O)(=O)O + CC1(C)CCC(c2ccc(Cl)cc2)=C(CN2CCN(c3ccc(C(=O)NS(=O)(=O)c4ccc(N[C@H](CCN5CCOCC5)CSc5ccccc5)c(S(=O)(=O)C(F)(F)F)c4)cc3)CC2)C1 [Navitoclax] (partner 0.5 µM)
Method in brief: as §1

[4] = compound: C1=CC2=C(C=C(C(=C2N=C1)O)N=NC3=CC4=C(C=C3)C=C(C=C4)S(=O)(=O)O)S(=O)(=O)O + C[C@]1(O)C[C@@H](c2nc(-c3ccc4ccc(-c5ccccc5)nc4c3)c3c(N)nccn32)C1 [Linsitinib] (partner 1 µM)
Method in brief: as §1

Cell Line | relative viability ([1]; first compound 0.08 µM) | relative viability ([1]; first compound 0.253 µM) | relative viability ([1]; first compound 0.8 µM) | relative viability ([1]; first compound 2.53 µM) | relative viability ([1]; first compound 8 µM) | relative viability ([2]; first compound 0.08 µM) | relative viability ([2]; first compound 0.253 µM) | relative viability ([2]; first compound 0.8 µM) | relative viability ([2]; first compound 2.53 µM) | relative viability ([2]; first compound 8 µM) | relative viability ([3]; first compound 0.08 µM) | relative viability ([3]; first compound 0.253 µM) | relative viability ([3]; first compound 0.8 µM) | relative viability ([3]; first compound 2.53 µM) | relative viability ([3]; first compound 8 µM) | relative viability ([4]; first compound 0.08 µM) | relative viability ([4]; first compound 0.253 µM) | relative viability ([4]; first compound 0.8 µM) | relative viability ([4]; first compound 2.53 µM) | relative viability ([4]; first compound 8 µM)
ChaGo-K-1 | 0.983 | 0.908 | 0.938 | 0.875 | 0.798 | 0.974 | 0.948 | 0.931 | 0.903 | 0.853 | 0.933 | 0.955 | 0.968 | 1.06 | 1 | – | – | – | – | –
EBC-1 | – | – | – | – | – | – | – | – | – | – | 0.394 | 0.474 | 0.415 | 0.452 | 0.371 | 1.04 | 0.878 | 0.796 | 0.945 | 0.915
EKVX | 0.346 | 0.305 | 0.37 | 0.341 | 0.332 | 0.542 | 0.359 | 0.35 | 0.48 | 0.344 | 0.985 | 0.868 | 0.867 | 0.98 | 1.02 | 1.15 | 0.956 | 0.891 | 1.01 | 0.927
EMC-BAC-2 | 0.964 | 0.853 | 0.912 | 0.997 | 0.911 | 0.528 | 0.541 | 0.509 | 0.519 | 0.537 | 1.45 | 1.11 | 1.13 | 1.2 | 1.11 | 0.912 | 0.821 | 0.825 | 0.823 | 0.8
EPLC-272H | 0.358 | 0.276 | 0.277 | 0.287 | 0.282 | 0.369 | 0.31 | 0.325 | 0.371 | 0.316 | 1.22 | 1.11 | 1.01 | 1.24 | 1.23 | 1.29 | 1.07 | 1.13 | 1.31 | 1.37
H3255 | 0.588 | 0.614 | 0.66 | 0.654 | 0.624 | 0.303 | 0.313 | 0.334 | 0.344 | 0.313 | 0.502 | 0.477 | 0.487 | 0.604 | 0.646 | 0.95 | 0.899 | 0.948 | 1.04 | 0.911
HARA | 0.878 | 0.442 | 0.869 | 0.82 | 0.532 | 0.249 | 0.244 | 0.277 | 0.221 | 0.245 | 1.15 | 1.15 | 1.18 | 1.14 | 1.11 | 1.01 | 1.08 | 0.937 | 1.06 | 0.957
HCC-15 | 0.427 | 0.387 | 0.428 | 0.377 | 0.365 | 0.759 | 0.658 | 0.737 | 0.67 | 0.723 | 0.754 | 0.693 | 0.692 | 0.693 | 0.705 | 0.978 | 0.874 | 0.788 | 0.897 | 0.878
HCC-44 | 1.04 | 1.01 | 1.09 | 1.04 | 0.797 | 1.02 | 0.96 | 0.964 | 1.01 | 0.975 | 1.03 | 0.863 | 1.01 | 1.02 | 0.969 | 0.708 | 0.66 | 0.664 | 0.702 | 0.698
